ChEMBL document CHEMBL1201862, “PubChem BioAssay data set” (2004)
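Where inhibition never reached the appropriate level, the endpoint shown equals the highest concentration tested. Otherwise, values were interpolated linearly from a five-concentration, 48-hour dose response in 96-well plates. GI50: concentration for 50% inhibition of growth.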 Active and inactive are the calls of the source. No stated cut-off is given here; in the data, active = GI50 up to about 1.1 µM and inactive = higher.

What was measured:
Experiment in all cases: inhibition of tumour cell growth, NCI panel, 48 h
[1] = system: NCI-H522
[2] = system: MCF7
[3] = system: UO-31
[4] = system: ACHN
[5] = system: HT-29
[6] = system: SF-268
[7] = system: HCT-15
[8] = system: A498
[9] = system: BT-549
[10] = system: RXF 393
[11] = system: Malme-3M
[12] = system: HCC 2998
[13] = system: RPMI-8226
[14] = system: SW-620
[15] = system: EKVX
[16] = system: MOLT-4
[17] = system: NCI-H460
[18] = system: HL-60
[19] = system: SK-MEL-5
[20] = system: PC-3

| SMILES | GI50 [1] | GI50 [2] | GI50 [3] | GI50 [4] | GI50 [5] | GI50 [6] | GI50 [7] [µM] | GI50 [8] | GI50 [9] | GI50 [10] | GI50 [11] | GI50 [12] | GI50 [13] | GI50 [14] | GI50 [15] | GI50 [16] | GI50 [17] | GI50 [18] | GI50 [19] | GI50 [20] |
| --- | --- | --- | --- | --- | --- | --- | --- | --- | --- | --- | --- | --- | --- | --- | --- | --- | --- | --- | --- | --- |
| c1ccc2sc(SSSc3nc4ccccc4s3)nc2c1 | 23 µM (inactive) | 44.1 µM (inactive) | > 100 µM (inactive) | > 100 µM (inactive) | 35.7 µM (inactive) | > 100 µM (inactive) | 27.7 | > 100 µM (inactive) | > 100 µM (inactive) | > 100 µM (inactive) | > 100 µM (inactive) | > 100 µM (inactive) | > 100 µM (inactive) | > 100 µM (inactive) | > 100 µM (inactive) | 77.3 µM (inactive) | 44.7 µM (inactive) | 49.2 µM (inactive) | > 100 µM (inactive) | > 100 µM (inactive) |
| c1ccc(CN2COc3c(ccc4c5c(ccc34)CN(Cc3ccccc3)CO5)C2)cc1 | > 100 µM (inactive) | > 100 µM (inactive) | > 100 µM (inactive) | > 100 µM (inactive) | > 100 µM (inactive) | > 100 µM (inactive) | > 100 | > 100 µM (inactive) | > 100 µM (inactive) | > 100 µM (inactive) | > 100 µM (inactive) | > 100 µM (inactive) | > 100 µM (inactive) | > 100 µM (inactive) | > 100 µM (inactive) | > 100 µM (inactive) | > 100 µM (inactive) | > 100 µM (inactive) | > 100 µM (inactive) | > 100 µM (inactive) |
| CN(C)CCNC(=O)c1cc([N+](=O)[O-])ccn1 | 18.1 µM (inactive) | 16.6 µM (inactive) | > 100 µM (inactive) | 36.7 µM (inactive) | 11.4 µM (inactive) | 28.4 µM (inactive) | 18.1 | > 100 µM (inactive) | 84.5 µM (inactive) | 41.6 µM (inactive) | 14.8 µM (inactive) | 40 µM (inactive) | 45.1 µM (inactive) | 27 µM (inactive) | > 100 µM (inactive) | 23.1 µM (inactive) | 38.1 µM (inactive) | 20.3 µM (inactive) | 18.6 µM (inactive) | 23.1 µM (inactive) |
| C=C(CCC/C(C)=C/C=C/[C@]1(C)CCCc2ccoc21)CC(=O)O | > 100 µM (inactive) | 82.6 µM (inactive) | > 100 µM (inactive) | > 100 µM (inactive) | > 100 µM (inactive) | > 100 µM (inactive) | 98.9 | > 100 µM (inactive) | 79.1 µM (inactive) | > 100 µM (inactive) | > 100 µM (inactive) | > 100 µM (inactive) | 54.2 µM (inactive) | > 100 µM (inactive) | > 100 µM (inactive) | 38.7 µM (inactive) | > 100 µM (inactive) | 43.6 µM (inactive) | > 100 µM (inactive) | 90.6 µM (inactive) |
| c1ccc(CC(Nc2cccnc2)c2ccccc2)cc1 (configuration not stated) | 22.4 µM (inactive) | 28.9 µM (inactive) | 19.7 µM (inactive) | 37.7 µM (inactive) | 16.4 µM (inactive) | 40.6 µM (inactive) | 30.3 | 34 µM (inactive) | 25.2 µM (inactive) | 18.6 µM (inactive) | 29 µM (inactive) | 21.2 µM (inactive) | 17 µM (inactive) | 33 µM (inactive) | 24.2 µM (inactive) | 16.4 µM (inactive) | 23 µM (inactive) | 23.9 µM (inactive) | 15.7 µM (inactive) | 24.8 µM (inactive) |
| O=c1c(Cc2cccc(Cc3c(O)oc4ccccc4c3=O)c2)c(O)oc2ccccc12 | > 100 µM (inactive) | 62.4 µM (inactive) | > 100 µM (inactive) | > 100 µM (inactive) | > 100 µM (inactive) | > 100 µM (inactive) | > 100 | > 100 µM (inactive) | > 100 µM (inactive) | > 100 µM (inactive) | > 100 µM (inactive) | > 100 µM (inactive) | > 100 µM (inactive) | > 100 µM (inactive) | > 100 µM (inactive) | > 100 µM (inactive) | > 100 µM (inactive) | > 100 µM (inactive) | > 100 µM (inactive) | > 100 µM (inactive) |
| COc1ccc2c(c1)c(=O)c1c(NCCNCCO)ccc3c(=O)n(CCN(C)C)c(=O)n2c31 | < 0.0182 µM (active) | < 0.0276 µM (active) | 0.182 µM (active) | 0.027 µM (active) | 0.0352 µM (active) | 0.103 µM (active) | 0.23 | 0.116 µM (active) | 0.615 µM (active) | 0.114 µM (active) | 0.0989 µM (active) | < 0.0337 µM (active) | 0.0912 µM (active) | < 0.0236 µM (active) | 0.0889 µM (active) | < 0.01 µM (active) | < 0.0202 µM (active) | > 100 µM (inactive) | 0.0562 µM (active) | 0.0836 µM (active) |
| CC1NC(C(=O)O)Cc2cc(O)c(O)cc21 (configuration not stated) | > 100 µM (inactive) | > 100 µM (inactive) | > 100 µM (inactive) | > 100 µM (inactive) | > 100 µM (inactive) | > 100 µM (inactive) | > 100 | > 100 µM (inactive) | > 100 µM (inactive) | > 100 µM (inactive) | > 100 µM (inactive) | > 100 µM (inactive) | > 100 µM (inactive) | > 100 µM (inactive) | > 100 µM (inactive) | > 100 µM (inactive) | > 100 µM (inactive) | > 100 µM (inactive) | > 100 µM (inactive) | > 100 µM (inactive) |
| O=C(NC(Cc1c[nH]cn1)C(=O)N1CCCC1)C1CCCC1 (configuration not stated) | > 100 µM (inactive) | > 100 µM (inactive) | > 100 µM (inactive) | > 100 µM (inactive) | > 100 µM (inactive) |  | > 100 | 37.9 µM (inactive) | > 100 µM (inactive) | > 100 µM (inactive) | > 100 µM (inactive) | > 100 µM (inactive) | > 100 µM (inactive) | > 100 µM (inactive) | > 100 µM (inactive) | > 100 µM (inactive) | > 100 µM (inactive) | > 100 µM (inactive) | > 100 µM (inactive) | > 100 µM (inactive) |
| O=c1c2cc(-c3ccccc3)cnc2sn1-c1ccc([N+](=O)[O-])cc1 | 22.1 µM (inactive) | 49 µM (inactive) | 40 µM (inactive) | 24.9 µM (inactive) | 68.2 µM (inactive) | 48.2 µM (inactive) | 55.2 | 23.7 µM (inactive) | 52.8 µM (inactive) | 29.9 µM (inactive) | 40.6 µM (inactive) | > 100 µM (inactive) | 23.4 µM (inactive) | 94.8 µM (inactive) | 53 µM (inactive) | 71.3 µM (inactive) | 37.3 µM (inactive) | 37.8 µM (inactive) |  | 33.7 µM (inactive) |
| Cc1cccc(/C(Br)=C2/OC(=O)c3ccccc32)c1 | > 100 µM (inactive) | > 100 µM (inactive) |  | > 100 µM (inactive) | > 100 µM (inactive) | > 100 µM (inactive) | > 100 | > 100 µM (inactive) | > 100 µM (inactive) | > 100 µM (inactive) | > 100 µM (inactive) | > 100 µM (inactive) | > 100 µM (inactive) | > 100 µM (inactive) | > 100 µM (inactive) | > 100 µM (inactive) | > 100 µM (inactive) | > 10 µM (inactive) | > 100 µM (inactive) | > 100 µM (inactive) |
